# Laboratory results as given in paper PMC10895676, “Antiviral Activity of Lipophilic Nucleoside Tetraphosphate Compounds” (Journal of Medicinal Chemistry, 2024).
# Like-named read-outs stand apart in the source and are kept apart here.
# Key:
# [1] = test system: pig liver esterase (PLE); assay: Enzymatic hydrolysis with pig liver esterase (PLE); format: in vitro ADME; details: pig liver esterase in phosphate buffer, PLE in phosphate buffer pH 7.3, 37 °C, read-out: PLE t1/2 (converted)
# Description: To confirm the enzymatic hydrolysis process, TetraPPPPro-nucleotides 4–9 bearing different kinds of lipophilic groups attached to the δ-phosph(on)ate group were incubated with PLE in phosphate buffer.
# Then, 833 μL of 50 mM phosphate buffer (pH 7.3) and 125 μL of DMSO were added to the 6.0 mM hydrolysis solutions. The reaction was started by addition of 62.5 μL of PLE in phosphate buffer (100 units/mL), and the mixture was incubated at 800 rpm at 37 °C in a thermomixer. (1). At different times, aliquots (75 μL) were taken and stopped by the addition of […] of MeOH. The mixture was stored in liquid nitrogen. When testing, samples were warmed up to room temperature, and 60 μL of the liquid was directly injected into HPLC analysis. (2). 40 μL for each extraction was stored in liquid nitrogen. When testing, samples were warmed up to room temperature, and 30 μL of the liquid was taken and injected into the analytical RP-18-HPLC instrument. The calculation of t1/2 was performed analogously to that for the chemical hydrolysis studies.
# [2] = test system: HIV-2 (ROD); assay: Anti-HIV replication assay, HIV-2 (ROD) in wild-type CEM/0 cells; format: cell-based; details: for selectivity index (SI): CC50/EC50, HIV-2 (ROD) in CEM cells; for EC50: Human immunodeficiency virus 2, CCRF-CEM, read-out: HIV-2 (ROD) EC50
# Summary of the method: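 Wild-type CEM/0 or thymidine kinase-deficient CEM/TK– T-cells (~3 × 10^5 cells/mL) were infected with 100 CCID50/mL HIV-2(ROD) in the presence of compound dilutions. After 4–5 days at 37 °C, virus-induced cytopathicity and syncytium formation were scored microscopically.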
# [3] = Cytotoxicity, inhibition of CEM/TK– cell proliferation; format: cell-based; details: human, CEM/TK– cells (CD4+ T-cells), read-out: toxicity CC50
# [4] = Hydrolysis in citrate-stabilized human plasma; format: in vitro ADME; details: 37 °C, read-out: t1/2 in citrate-stabilized human plasma (converted)
# Description: Finally, the supernatant was divided into aliquots and frozen at −80 °C.
# Two different samples, including 10 μL of water and 10 μL of 6.0 mM hydrolysis solution, were prepared in 2 mL Eppendorf vials. Next, 50 μL of human CEM cell extracts or 50 μL of human citrate plasma were added to the mixture, the reaction was started, and the mixture was incubated at 37 °C for different time periods. The reactions were stopped by the addition of 150 μL of MeOH. The resulting suspension was kept on ice for 5 min, followed by defrosting and centrifugation at 14,000 rpm (Heraeus, Biofuge Pico) for 22 min. The supernatants (80 or 60 μL) were directly injected into HPLC. The calculation of t1/2 was performed analogously to that for the chemical hydrolysis studies.
# [5] = wild-type CEM/0 cells, mean ± SD, n = 2–3
SMILES,half-life at 0.45 mM [1] [min],selectivity index (SI) [2],"EC50 [2, 5] [nM]",CC50 [3] [µM],half-life at 0.86 mM [4] [min],EC50 [2] [nM]
"CCCCCCCCCCCCCCCCCCOP(=O)(OCCCC)OP(=O)(O)OP(=O)(O)OP(=O)(O)OC[C@@H]1C=C[C@H](n2cc(C)c(=O)[nH]c2=O)O1 (stereo partly drawn) [4d, δ-(Alkyl-C4; alkyl-C18)-d4T4P]",> 3000,522,84 ± 18,46.8,,
"CCCCCCCCCCCCCCCCCCP(=O)(OCCCC)OP(=O)(O)OP(=O)(O)OP(=O)(O)OC[C@@H]1C=C[C@H](n2cc(C)c(=O)[nH]c2=O)O1 (stereo partly drawn) [5a, δ-(Alkyl-C4)-δ-C-(alkyl-C18)-d4T4P]",> 3000,,,49.8,> 1320,330 ± 120
"CCCCCCCCCCCCCCCCCCOP(=O)(O)OP(=O)(O)OP(=O)(O)OP(=O)(O)OC[C@@H]1C=C[C@H](n2cc(C)c(=O)[nH]c2=O)O1 [compound 20, δ-(Alkyl-C18)-d4T4P]",> 3000,>200,500 ± 160,> 100,,
"CCCCCCCCCCCCCCCCCCP(=O)(O)OP(=O)(O)OP(=O)(O)OP(=O)(O)OC[C@@H]1C=C[C@H](n2cc(C)c(=O)[nH]c2=O)O1 [compound 24, δ-C-(Alkyl-C18)-d4T4P]",> 3000,,240 ± 70,40.1,> 1320,
"Cc1cn([C@H]2C=C[C@@H](COP(=O)(O)OP(=O)(O)OP(=O)(O)OP(=O)(O)O)O2)c(=O)[nH]c1=O [d4T4P, 2′,3′-didehydro-2′,3′-dideoxythymidine-5′-tetraphosphate]",,,220 ± 92,> 100,,
